Experimental data: ChEMBL document CHEMBL4406832, “Discovery of novel series of 2-substituted benzo[d]oxazol-5-amine derivatives as multi-target directed ligands for the treatment of Alzheimer's disease” (Eur J Med Chem, 2019)
pIC50, pKi: −log10 of the molar value. Active and inactive are the calls of the source. The calls are words filed in the database; no cut-off is given here.

Assays:
Acetylcholinesterase [1] = target: T1, Acetylcholinesterase (Electrophorus electricus, UniProt O42275); assay: Inhibition of electric eel AChE using acetylthiocholine iodide as substrate preincubated with enzyme for 30 mins followed by substrate addition and measured for 1 min by DTNB reagent-based spectrophotometric analysis
T1 sequence (O42275 whole entry): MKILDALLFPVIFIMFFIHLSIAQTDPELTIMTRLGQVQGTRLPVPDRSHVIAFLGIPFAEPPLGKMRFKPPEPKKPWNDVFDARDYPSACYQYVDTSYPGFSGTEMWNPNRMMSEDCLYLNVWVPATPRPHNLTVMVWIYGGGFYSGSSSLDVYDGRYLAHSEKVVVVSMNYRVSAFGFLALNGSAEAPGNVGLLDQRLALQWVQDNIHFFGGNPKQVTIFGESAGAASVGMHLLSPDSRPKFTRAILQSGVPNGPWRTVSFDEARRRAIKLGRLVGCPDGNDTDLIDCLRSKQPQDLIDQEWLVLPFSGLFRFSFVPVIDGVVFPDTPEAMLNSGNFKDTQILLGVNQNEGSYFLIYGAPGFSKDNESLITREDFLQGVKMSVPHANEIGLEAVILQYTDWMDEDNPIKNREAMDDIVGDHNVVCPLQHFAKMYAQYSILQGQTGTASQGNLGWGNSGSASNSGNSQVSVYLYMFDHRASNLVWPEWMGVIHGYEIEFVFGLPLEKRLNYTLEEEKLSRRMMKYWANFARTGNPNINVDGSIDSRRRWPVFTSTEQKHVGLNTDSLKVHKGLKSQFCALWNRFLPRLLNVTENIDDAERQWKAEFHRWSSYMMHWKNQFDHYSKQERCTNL

Cholinesterase [2] = target: T2, Cholinesterase (Equus caballus, UniProt P81908); assay: Inhibition of equine serum BuChE using butyrylthiocholine iodide as substrate preincubated for 30 mins followed by substrate addition and measured for 1 min by DTNB reagent-based spectrophotometric analysis
T2 sequence (P81908 whole entry): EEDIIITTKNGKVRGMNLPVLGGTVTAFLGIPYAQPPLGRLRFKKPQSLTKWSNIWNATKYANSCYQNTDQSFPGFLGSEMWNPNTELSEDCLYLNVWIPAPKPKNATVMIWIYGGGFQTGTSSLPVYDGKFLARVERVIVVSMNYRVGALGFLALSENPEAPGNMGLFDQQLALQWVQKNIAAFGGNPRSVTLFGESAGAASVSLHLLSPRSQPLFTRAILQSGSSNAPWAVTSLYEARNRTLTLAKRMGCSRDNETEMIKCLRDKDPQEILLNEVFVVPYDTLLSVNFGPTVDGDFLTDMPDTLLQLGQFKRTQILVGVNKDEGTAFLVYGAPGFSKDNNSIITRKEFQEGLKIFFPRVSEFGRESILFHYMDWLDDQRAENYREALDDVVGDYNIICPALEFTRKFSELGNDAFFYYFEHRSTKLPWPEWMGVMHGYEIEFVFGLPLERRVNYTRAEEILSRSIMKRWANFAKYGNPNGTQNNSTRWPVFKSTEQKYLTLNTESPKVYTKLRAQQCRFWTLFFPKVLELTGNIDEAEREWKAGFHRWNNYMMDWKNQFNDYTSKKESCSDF

[3] = Selectivity index, ratio of IC50 for equine serum BuChE to IC50 for electric eel AChE
[4] = Permeability of the compound in pH 7.4 PBS buffer incubated for 18 hrs by PAMPA-BBB assay
[5] = target: T3, Amyloid-beta precursor protein (Homo sapiens, UniProt P05067); assay: Displacement of [125I]IMPY from human amyloid beta(1-42) aggregates incubated for 3 hrs by gamma counting analysis
T3 sequence (P05067 whole entry): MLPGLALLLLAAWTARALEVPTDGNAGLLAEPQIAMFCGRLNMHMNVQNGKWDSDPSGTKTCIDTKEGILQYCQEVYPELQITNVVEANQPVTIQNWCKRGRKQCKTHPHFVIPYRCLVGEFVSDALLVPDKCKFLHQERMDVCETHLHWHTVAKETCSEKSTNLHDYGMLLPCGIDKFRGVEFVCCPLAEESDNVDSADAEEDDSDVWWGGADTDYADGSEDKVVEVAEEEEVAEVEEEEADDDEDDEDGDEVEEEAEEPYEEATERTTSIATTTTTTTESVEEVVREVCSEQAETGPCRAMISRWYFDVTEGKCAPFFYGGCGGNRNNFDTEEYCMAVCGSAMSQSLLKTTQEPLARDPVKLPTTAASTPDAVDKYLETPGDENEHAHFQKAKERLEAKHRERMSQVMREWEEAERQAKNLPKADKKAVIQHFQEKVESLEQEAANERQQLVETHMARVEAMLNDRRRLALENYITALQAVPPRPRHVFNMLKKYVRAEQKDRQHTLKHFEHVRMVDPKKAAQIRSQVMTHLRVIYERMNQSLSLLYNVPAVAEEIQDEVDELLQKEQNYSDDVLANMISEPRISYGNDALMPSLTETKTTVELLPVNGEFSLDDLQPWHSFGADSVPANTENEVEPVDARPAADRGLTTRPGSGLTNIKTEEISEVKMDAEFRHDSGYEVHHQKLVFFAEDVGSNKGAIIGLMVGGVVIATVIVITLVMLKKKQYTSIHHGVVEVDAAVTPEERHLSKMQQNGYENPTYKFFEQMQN

Rattus norvegicus [6] = assay: Cognitive enhancing effect in scopolamine-induced Wistar rat model of amnesia assessed as increase in spontaneous alteration at 5 mg/kg pretreated for 7 days followed by scopolamine challenge and measured after 30 mins by Y-maze test; format: functional, organism-based
Rattus norvegicus [7] = assay: (§1) Improvement in learning and spatial memory in icv infused amyloid beta (1 to 42)-induced Wistar rat model of Alzheimer's disease assessed as increase in time spent in platform zone at 5 mg/kg, po administered daily for 7 days starting from 7 days post surgery and measured after 6 days by Morris water maze test; format: functional, organism-based
Rattus norvegicus [8] = assay: as §1, with “reduction” for “increase”, “degeneration of neuron” for “time spent”, “hippocampal region” for “platform zone”, “H and E staining-based microscopic analysis” for “Morris water maze test”; format: functional, organism-based
Rattus norvegicus [9] = assay: as §1, with “reduction” for “increase”, “disordered neuron” for “time spent”, “hippocampal region” for “platform zone”, “H and E staining-based microscopic analysis” for “Morris water maze test”; format: functional, organism-based
SH-SY5Y [10] = assay: Neuroprotective activity against amyloid beta (1 to 42)-induced cytotoxicity in human SH-SY5Y cells assessed as increase in cell viability at 10 to 20 uM measured after 72 hrs by MTT assay; format: functional, cell-based
Rattus norvegicus [11] = assay: as §1, with “number of” for “time spent in”, “crossing” for “zone”; format: functional, organism-based
Rattus norvegicus [12] = assay: as §1, with “reduction” for “increase”, “escape latency” for “time spent in platform zone”, “daily for 5” for “after 6”; format: functional, organism-based
[13] = target: Cholinesterase (Equus caballus) (UniProt P81908); assay: Non-competitive inhibition of equine serum BuChE assessed as decrease in Km at 0.5 to 1.5 uM using varying levels of butyrylthiocholine iodide as substrate measured every 2 mins for 10 mins by reciprocal Lineweaver-Burk plot analysis
Sequence of Cholinesterase (Equus caballus) (P81908 whole entry): as the sequence (P81908 whole entry) above

Rattus norvegicus [14] = species: Rattus norvegicus; assay: Ex vivo inhibition of AChE in brain of scopolamine-induced Wistar rat model of amnesia pretreated for 7 days followed by scopolamine challenge and measured after 30 mins using acetylthiocholine iodide as substrate by Ellman's method; format: functional, organism-based
[15] = target: Acetylcholinesterase (Electrophorus electricus) (UniProt O42275); assay: Non-competitive inhibition of electric eel AChE assessed as decrease in Km at 25 to 75 nM using varying levels of acetylthiocholine iodide as substrate measured every 2 mins for 10 mins by reciprocal Lineweaver-Burk plot analysis
Sequence of Acetylcholinesterase (Electrophorus electricus) (O42275 24-633 limits assumed): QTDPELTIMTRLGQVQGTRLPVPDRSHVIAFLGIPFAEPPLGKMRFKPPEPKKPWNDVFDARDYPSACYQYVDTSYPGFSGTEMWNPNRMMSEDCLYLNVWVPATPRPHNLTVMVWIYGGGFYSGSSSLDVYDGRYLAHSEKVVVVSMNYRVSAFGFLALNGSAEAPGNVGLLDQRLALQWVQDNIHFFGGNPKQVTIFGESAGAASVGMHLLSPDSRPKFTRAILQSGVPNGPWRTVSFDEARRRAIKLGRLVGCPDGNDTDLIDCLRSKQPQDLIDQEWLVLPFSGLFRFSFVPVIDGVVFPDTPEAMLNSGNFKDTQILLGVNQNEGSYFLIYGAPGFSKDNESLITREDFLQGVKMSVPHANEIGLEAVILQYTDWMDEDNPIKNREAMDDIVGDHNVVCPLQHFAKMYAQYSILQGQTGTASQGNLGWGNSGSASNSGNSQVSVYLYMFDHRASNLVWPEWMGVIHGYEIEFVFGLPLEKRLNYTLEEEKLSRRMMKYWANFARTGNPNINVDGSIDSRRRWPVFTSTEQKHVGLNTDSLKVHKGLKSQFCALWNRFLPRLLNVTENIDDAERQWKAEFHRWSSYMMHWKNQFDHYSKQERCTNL

SH-SY5Y [16] = assay: Neuroprotective activity against amyloid beta (1 to 42)-induced cytotoxicity in human SH-SY5Y cells assessed as increase in cell viability at 40 to 80 uM measured after 72 hrs by MTT assay; format: functional, cell-based
Acetylcholinesterase [17] = target: T1, Acetylcholinesterase; assay: Non-competitive inhibition of electric eel AChE using varying levels of acetylthiocholine iodide as substrate measured at 2 mins interval for 10 mins by Dixon plot analysis
Rattus norvegicus [18] = assay: as §1, with “10” for “5”; format: functional, organism-based
Rattus norvegicus [19] = assay: as §1, with “reduction” for “increase”, “escape latency” for “time spent in platform zone”, “10” for “5”, “daily for 5” for “after 6”; format: functional, organism-based
Cholinesterase [20] = target: T2, Cholinesterase; assay: Non-competitive inhibition of equine serum BuChE using varying levels of butyrylthiocholine iodide as substrate measured at 2 mins interval for 10 mins by Dixon plot analysis
[21] = target: Acetylcholinesterase (Electrophorus electricus) (UniProt O42275); assay: Non-competitive inhibition of electric eel AChE assessed as decrease in Vmax at 25 to 75 nM using varying levels of acetylthiocholine iodide as substrate measured every 2 mins for 10 mins by reciprocal Lineweaver-Burk plot analysis
Rattus norvegicus [22] = assay: (§2) Improvement in learning and spatial memory in icv infused amyloid beta (1 to 42)-induced Wistar rat model of Alzheimer's disease assessed as reduction in disordered neuron in hippocampal region at 10 mg/kg, po administered daily for 7 days starting from 7 days post surgery and measured after 6 days by H and E staining-based microscopic analysis; format: functional, organism-based
[23] = Acute toxicity in Wistar rat assessed as animal death measured for 72 hrs by OCED guideline method; settings: in vivo
Rattus norvegicus [24] = species: Rattus norvegicus; assay: Cognitive enhancing effect in scopolamine-induced Wistar rat model of amnesia assessed as increase in spontaneous alteration pretreated for 7 days followed by scopolamine challenge and measured after 30 mins by Y-maze test; format: functional, organism-based
[25] = target: Cholinesterase (Equus caballus) (UniProt P81908); assay: Non-competitive inhibition of equine serum BuChE assessed as decrease in Vmax at 0.5 to 1.5 uM using varying levels of butyrylthiocholine iodide as substrate measured every 2 mins for 10 mins by reciprocal Lineweaver-Burk plot analysis
Rattus norvegicus [26] = assay: as §2, with “degeneration of” for “disordered”; format: functional, organism-based
[27] = Toxicity in Wistar rat assessed as change in body weight at 300 mg/kg measured for 72 hrs; format: organism-based; settings: in vivo
[28] = target: T3, Amyloid-beta precursor protein; assay: Inhibition of human amyloid beta (1 to 42) self-induced aggregation at 5 to 20 uM after 48 hrs by Thioflavin T based fluorometric assay
Rattus norvegicus [29] = assay: as §1, with “number of” for “time spent in”, “crossing” for “zone”, “10” for “5”; format: functional, organism-based
[30] = target: Acetylcholinesterase (Electrophorus electricus) (UniProt O42275); assay: Inhibition of electric eel AChE-induced amyloid beta (1 to 42) aggregation at 5 to 20 uM after 48 hrs by thioflavin T-based fluorometric assay

Structure (SMILES) | pIC50 (Acetylcholinesterase [1]) | pIC50 (Cholinesterase [2]) | Ratio IC50 [3] | Papp at 18 h [4] [×10⁻⁶ cm/s] | other results
Nc1ccc2oc(N3CCN(C(=O)c4cccc(Cl)c4)CC3)nc2c1 | 6.62 | 5.34 | 18.9 | 10.4 | –
Nc1ccc2oc(N3CCN(C(=O)c4ccccc4F)CC3)nc2c1 | 6.47 | 5.08 | 24.9 | 9.55 | –
Nc1ccc2oc(N3CCN(C(=O)c4cccc(F)c4)CC3)nc2c1 | 6.64 | 5.26 | 23.9 | 9.51 | –
Nc1ccc2oc(N3CCN(Cc4ccc(Br)cc4)CC3)nc2c1 | 6.42 | 5.53 | 7.8 | 11.3 | –
COc1ccc(C(=O)N2CCN(c3nc4cc(N)ccc4o3)CC2)cc1 | 6.56 | 5.14 | 26.6 | 9.71 | –
Nc1ccc2oc(N3CCN(c4ccc(Cl)cc4)CC3)nc2c1 | 5.71 | 4.95 | 5.6 | 10.6 | –
Nc1ccc2oc(N3CCN(c4ccccc4)CC3)nc2c1 | 5.68 | 4.78 | 8 | 10.3 | –
COc1cccc(C(=O)N2CCN(c3nc4cc(N)ccc4o3)CC2)c1 | 6.26 | 4.93 | 21.3 | 9.54 | –
Nc1ccc2oc(N3CCN(Cc4ccc(F)cc4)CC3)nc2c1 | 6.28 | 5.51 | 5.9 | 10.5 | –
Nc1ccc2oc(N3CCN(c4ccc(F)cc4)CC3)nc2c1 | 5.84 | 5.19 | 4.4 | 10.7 | –
Nc1ccc2oc(N3CCN(Cc4ccc(Cl)cc4)CC3)nc2c1 | 6.13 | 5.41 | 5.1 | 10.7 | –
C#CCN(Cc1ccc2cccc(O)c2n1)C(C#N)CCC1CCN(Cc2ccccc2)CC1 (configuration not stated) | 7.54 | – | – | – | –
COc1ccc(N2CCN(c3nc4cc(N)ccc4o3)CC2)cc1 | 5.68 | 4.89 | 6.1 | 10.5 | –
Nc1ccc2oc(N3CCN(C(=O)c4ccc(F)cc4)CC3)nc2c1 | 7.14 | 6.09 | 11.1 | 9.67 | –
Nc1ccc2oc(N3CCN(c4ccccn4)CC3)nc2c1 | 5.48 | 4.82 | 4.5 | 9.44 | –
Nc1ccc2oc(N3CCCCC3)nc2c1 | 5.25 | 4.62 | – | – | –
Nc1ccc2oc(N3CCN(Cc4ccccc4)CC3)nc2c1 | 6.04 | 5.17 | 7.3 | 10.2 | –
Nc1ccc2oc(N3CCN(C(=O)c4ccccc4Br)CC3)nc2c1 | 6.35 | 5.21 | 13.9 | 10.6 | –
Nc1ccc2oc(N3CCN(C(=O)c4ccc5c(c4)OCO5)CC3)nc2c1 | 6.21 | 5.82 | 2.4 | 9.64 | –

Structure (SMILES) | pIC50 (Acetylcholinesterase [1]) | pIC50 (Cholinesterase [2]) | Ratio IC50 [3] | Papp at 18 h [4] [×10⁻⁶ cm/s] | other results
Nc1ccc2oc(N3CCN(C(=O)c4cccc(Br)c4)CC3)nc2c1 | 6.79 | 5.57 | 16.4 | 10.5 | –
COc1cc2c(cc1OC)C(=O)C(Cc1cc[n+](Cc3ccccc3)cc1Br)C2 (configuration not stated) | 9.44 | – | – | – | –
Nc1ccc2oc(N3CCN(C(=O)c4ccccc4)CC3)nc2c1 | 6.10 | 5.22 | – | – | –
Nc1ccc2oc(N3CCN(C(=O)c4ccccc4Cl)CC3)nc2c1 | 6.25 | 5.31 | 8.6 | 10.3 | –
Nc1ccc2oc(N3CCOCC3)nc2c1 | 5.15 | 4.49 | 4.5 | 7.44 | –
COc1ccc(CN2CCN(c3nc4cc(N)ccc4o3)CC2)cc1 | 6.13 | 5.20 | 8.4 | 9.49 | –
COc1ccccc1C(=O)N1CCN(c2nc3cc(N)ccc3o2)CC1 | 6.03 | 5.13 | 7.9 | 9.21 | –
COc1ccc(Cl)cc1C(=O)N1CCN(c2nc3cc(N)ccc3o2)CC1 | 6.49 | 5.86 | 4.2 | 8.82 | –
CC(C)c1ccc(CN2CCN(c3nc4cc(N)ccc4o3)CC2)cc1 | 6.03 | 4.95 | 11.9 | 11.6 | –
Cc1ccc(CN2CCN(c3nc4cc(N)ccc4o3)CC2)cc1 | 6.09 | 5.29 | 6.4 | 10.6 | –
CN(C)c1ccc(-c2nc3cc([125I])ccc3o2)cn1 | – | – | – | – | pKi [5]: 8.16
Nc1ccc2oc(N3CCN(c4ccc(Br)cc4)CC3)nc2c1 | 5.98 | 5.06 | 8.3 | 10.5 | –
Nc1ccc2oc(N3CCN(C(=O)c4ccc(Cl)cc4)CC3)nc2c1 | 6.96 | 5.48 | 30.4 | 10.4 | –
Cc1ccc(N2CCN(c3nc4cc(N)ccc4o3)CC2)cc1 | 5.38 | 5.05 | 2.1 | 10.4 | –
Nc1ccc2oc(NC3CCN(Cc4ccccc4)CC3)nc2c1 | 6.25 | 5.64 | 4 | 9.47 | –
Nc1ccc2oc(N3CCN(CCc4ccccc4)CC3)nc2c1 | 6.41 | 6.02 | 2.4 | 13.4 | –
COc1cc2c(cc1OC)C(=O)C(CC1CCN(Cc3ccccc3)CC1)C2 (configuration not stated) | – | – | – | – | Activity (Rattus norvegicus [6]): Active; Activity (Rattus norvegicus [7]): Active; Activity (Rattus norvegicus [8]): Active; Activity (Rattus norvegicus [9]): Active; Activity (SH-SY5Y [10]): Active; Activity (Rattus norvegicus [11]): Active; Activity (Rattus norvegicus [12]): Active
Nc1ccc2oc(N3CCN(C(=O)c4ccc(Br)cc4)CC3)nc2c1 | 7.28 | 5.96 | 20.8 | 10.8 | inhibition [13]: Active; inhibition (Rattus norvegicus [14]): Dose-dependent effect; inhibition [15]: Active; Activity (SH-SY5Y [16]): Active; pKi (Acetylcholinesterase [17]): 7.52; Activity (Rattus norvegicus [18]): Active; Activity (Rattus norvegicus [19]): Active; pKi (Cholinesterase [20]): 6.07; inhibition [21]: Active; Activity (Rattus norvegicus [22]): Active; Activity [23]: Toxic; Activity (SH-SY5Y [10]): inactive; Activity (Rattus norvegicus [24]): Dose-dependent effect; inhibition [25]: Active; Activity (Rattus norvegicus [26]): Active; Activity [27]: Toxic; inhibition [28]: Active; Activity (Rattus norvegicus [29]): Active; inhibition [30]: Active
